In PubChem BioAssay (NCI):
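Five concentrations, 48 hours, 96-well plates. The concentration for 50% growth inhibition is given as GI50. TGI: total growth inhibition.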

Legend:
Experiment in all cases: growth of human tumour cells (NCI), 48 h
EKVX NSCLC = system: EKVX NSCLC
UACC-62 melanoma = system: UACC-62 melanoma
SN12C renal = system: SN12C renal
CAKI-1 renal = system: CAKI-1 renal
SF-295 CNS = system: SF-295 CNS
RPMI-8226 leukemia = system: RPMI-8226 leukemia
OVCAR-5 ovarian = system: OVCAR-5 ovarian
OVCAR-3 ovarian = system: OVCAR-3 ovarian
HCC-2998 colon = system: HCC-2998 colon
A549 NSCLC = system: A549 NSCLC

SMILES | TGI (EKVX NSCLC) | TGI (UACC-62 melanoma) | TGI (SN12C renal) | TGI (CAKI-1 renal) | TGI (SF-295 CNS) | TGI (RPMI-8226 leukemia) | TGI (OVCAR-5 ovarian) | TGI (OVCAR-3 ovarian) | TGI (HCC-2998 colon) | TGI (A549 NSCLC) | GI50 (EKVX NSCLC) | GI50 (UACC-62 melanoma) | GI50 (SN12C renal) | GI50 (CAKI-1 renal) | GI50 (SF-295 CNS) | GI50 (RPMI-8226 leukemia) | GI50 (OVCAR-5 ovarian) | GI50 (OVCAR-3 ovarian) | GI50 (HCC-2998 colon) | GI50 (A549 NSCLC)
O=C1C2=C(c3ccccc31)C(c1cccc(Cl)c1)NC(=S)N2 (stereo not drawn) | > 100 µM | > 100 µM | > 100 µM | > 100 µM | > 100 µM | > 100 µM | > 100 µM | > 100 µM | > 100 µM | > 100 µM |  |  |  |  |  |  |  |  |  | 
CCCCCCCCCCCCc1ccc(C(=O)/C=C/C(=O)O)cc1 | 17.1 µM | 3.66 µM | 4.14 µM | 3.58 µM | 25.5 µM | 6.75 µM | 23.1 µM | 3.47 µM | 17.7 µM | 30.7 µM | 4.09 µM | 1.71 µM | 1.83 µM | 1.76 µM | 12.5 µM | 2110 nM | 10.3 µM | 1.91 µM | 5.45 µM | 13.8 µM
COC(=O)c1cnc(=O)n(C2CC(O)C(CO)O2)c1 (stereo not drawn) | > 100 µM | > 100 µM | > 100 µM | > 100 µM | > 100 µM | > 58.5 µM | > 100 µM | > 100 µM | > 100 µM | > 100 µM | > 100 µM | > 100 µM | > 100 µM | > 100 µM | > 100 µM | 1420 nM | > 100 µM | > 100 µM | > 100 µM | > 100 µM
Cc1ccc(S(=O)(=O)N/N=C/C(Br)=C(/Br)C(=O)O)cc1 | 34 µM | 22.3 µM | 25.6 µM | 18.1 µM | 36.3 µM | 6.18 µM | > 55.5 µM | 20.2 µM | 15.7 µM | 50.2 µM |  |  |  |  |  |  |  |  |  | 
NC(N)=NS(=O)(=O)c1ccc(NC(=O)c2cccc3c(Nc4ccc(S(=O)(=O)N=C(N)N)cc4)c4ccc(Cl)cc4nc23)cc1 | > 100 µM | > 100 µM | > 100 µM | > 100 µM | > 100 µM | > 100 µM | > 100 µM | > 100 µM | > 100 µM | > 100 µM |  |  |  |  |  |  |  |  |  | 
COc1cc(C2C(Cl)C(=O)N2n2cnc3ccccc3c2=O)cc(OC)c1OC (stereo not drawn) | > 100 µM | > 100 µM | > 100 µM | > 100 µM | > 100 µM | > 100 µM | > 100 µM | > 100 µM | > 100 µM | > 100 µM |  |  |  |  |  |  |  |  |  | 
C/C(=N\NC(=S)Nc1ccc(C(=O)O)cc1)c1ccccn1 | > 100 µM | 21.9 µM | 35.8 µM | 80.5 µM | > 100 µM | 76.6 µM | 60.7 µM | 47.8 µM | 32.7 µM | > 100 µM |  |  |  |  |  |  |  |  |  | 
Cn1ncc2cc3c(Nc4ccc(Cl)cc4)cccc3nc21 | 88 µM | 32.7 µM | 70.8 µM | 61.3 µM | 35.3 µM | 34.2 µM |  | 44 µM | 54.5 µM | 85.3 µM |  |  |  |  |  |  |  |  |  | 
Nc1ccn(C=C=CCO)c(=O)n1 | > 1000 µM | > 1000 µM | > 1000 µM | > 1000 µM | > 1000 µM | > 1000 µM | > 1000 µM | > 1000 µM | > 1000 µM | > 1000 µM | > 1000 µM | > 1000 µM | > 1000 µM | > 1000 µM | > 1000 µM |  | > 1000 µM | > 1000 µM | > 1000 µM | > 1000 µM
